According to patent publication US9839632B2, “Methods and compositions using 4-amino-2-(2,6-dioxo-piperidine-3-yl)-isoindoline-1,3-dione for treatment and management of central nervous system cancers” (CELGENE CORPORATION, priority 2013, dated 2017):

Assays:
[1] = system: primary murine microglia cells cocultured with Raji lymphoma cells; assay: Polarization of primary murine microglia cocultured with Raji lymphoma cells with or without primary murine NK cells; type: cell-based; settings: for M2 polarization of microglia cells (FXIIIA, pSTAT6): coculture with Raji lymphoma cells, without NK cells; for polarization status of microglia cells (iNOS, pSTAT1): triple culture with Raji lymphoma cells and primary murine NK cells, 10 ug/ml 48 hours
Experimental: (§1) Treatments: In experiments in which IL-4 was used to induce M2 polarization of macrophages, cells were treated with IL-4 (20 ng/ml) for 48 hours followed by treatment with 4-amino-2-(2,6-dioxo-piperidine-3-yl)-isoindoline-1,3-dione (10 ug/ml) or DMSO control for 48 hours. In triple cell culture experiments with lymphoma cells, macrophages, and NK cells, the treatment was with either DMSO or 4-amino-2-(2,6-dioxo-piperidine-3-yl)-isoindoline-1,3-dione (10 ug/ml) for 48 hours.
(§2) Immunofluorescence for analysis of macrophage polarization in cell culture experiments: Live cells were fixed in 10% formalin for 30 minutes at room temperature followed by permeabilization with PBS-0.2% Triton X-100 for 2 min. After blocking with PBS-5% goat serum-0.02% Triton X-100 for 30 minutes at 37° C., the cells were incubated overnight at 4° C. with rat monoclonal F4/80 antibody (for primary microglia cells, 1:200 Abcam), rat monoclonal CD11b (for U937, 1:200 Biolegend), rabbit polyclonal Ym1 antibody (for primary microglia cells and primary peritoneal macrophages, 1:200, Stemcell Technologies, Vancouver, Canada), rabbit polyclonal FXIII A antibody (for U937, 1:200, Abcam), mouse monoclonal p-STAT1 antibody (1:200, Abcam), rabbit polyclonal p-STAT6 antibody (1:200, Abcam) or rabbit iNOS antibody (1:200, Calbiochem). After washing, cells were incubated with the Alexa Fluor 594 Goat anti-Rat IgG secondary antibody (1:1000, Life Technologies) and FITC Donkey anti-rabbit IgG secondary antibody (1:1000, Life technology) or FITC Goat anti-mouse IgG secondary antibody (1:1000, Sigma) at 37° C. for 45 minutes. Finally, Vectashield H-1200 mounting medium with DAPI (Vector Laboratories) was used to stain the nuclei. Images were obtained on a Zeiss LSM 510 META confocal microscope.

[2] = system: macrophages and NK cells in the CNS lymphoma microenvironment; assay: Immunohistochemistry/immunofluorescence of CNS lymphoma microenvironment, OCI-LY10 model; type: in vivo, athymic mice; settings: P<0.05 vs control
From the text: Immunohistochemistry (“IHC”) assessment for macrophages: Paraffin sections (10 μm thick) were fixed, blocked, and immunostained with the appropriate antibody: Iba-1 (BD Biosciences) for macrophages, Ym1 (Stemcell Technologies) as a marker for M2 polarization, iNOS (Calbiochem) as a marker for M1 polarization. Aperio ScanScope XT slide scanner and image analysis system (Aperio Spectrum, Vista, Calif.) were used for quantitative assessment of macrophages. Three equal-size (0.4 mM2) fields in macrophage-dense areas were selected in the contralateral brain and the tumor for counting. Data were shown as an average of the three fields.
Immunofluorescence for natural killer cells: Frozen sections (10 μm thick) were permeabilized with PBS-0.2% Triton X-100 for 5 min. After blocking with PBS-5% goat serum-0.02% Triton X-100 for 45 mins at 37° C., the sections were incubated overnight at 4° C. with Rat monoclonal CD335 antibody (a marker for NK cells, 1:200, Biolegend). After washing, sections were incubated with the Alexa Fluor 594 Goat anti-Rat IgG secondary antibody (1:1000, Life Technologies) at 37° C. for 1.5 h. Finally, Vectashield H-1200 mounting medium with DAPI (Vector Laboratories) was used to stain the nuclei. Images were obtained on a Zeiss LSM 510 META confocal microscope. Six equal-size (0.2 mM^2) fields in NK-dense areas were selected in the tumor for taking pictures. Fluorescence intensity data were generated by Zeiss LSM 510 and shown as an average of six fields.
Statistical analysis: One-way ANOVA was used to compare the difference between the groups at each time point. Two-way repeated measures ANOVA was used to analyze the interaction between the time and treatment. Survival analysis was performed by Kaplan Meier method. Kaplan Meier survival curves were generated using Prism4 software and the statistical difference between curves was derived with a log-rank test. P<0.05 was considered significant.

[3] = system: primary murine peritoneal macrophages; assay: Polarization of IL4-treated primary murine peritoneal macrophages (immunofluorescence); type: cell-based; settings: IL-4 20 ng/ml 48 hours then 10 ug/ml 48 hours
Experimental: as §1
as §2, with “After washing, cells were incubated with the Alexa Fluor 594 Goat anti-Rat IgG secondary antibody (1:1000, Life Technologies) and FITC Donkey anti-rabbit IgG secondary antibody (1:1000, Life technology) or FITC Goat anti-mouse IgG secondary antibody (1:1000, Sigma) at 37° C. for 45 minutes. Finally, Vectashield H-1200 mounting medium with DAPI (Vector Laboratories) was used to stain the nuclei. Images were obtained on a Zeiss LSM 510 META confocal microscope.” left out

[4] = listed as 4-amino-2-(2,6-dioxo-piperidine-3-yl)-isoindoline-1,3-dione

SMILES: Nc1cccc2c1C(=O)N(C1CCC(=O)NC1=O)C2=O (stereo not drawn) [Pomalidomide, 4-amino-2-(2,6-dioxo-piperidine-3-yl)-isoindoline-1,3-dione]
- M2 polarization of microglia cells (FXIIIA, pSTAT6) [1]: reversed
- M2 polarization of microglia cells (FXIIIA, pSTAT6) [1, 4]: M2 polarization was not seen
- polarization status of microglia cells (iNOS, pSTAT1) [1]: from M2 to M1
- polarization status of microglia cells (iNOS, pSTAT1) [1, 4]: became M1-polarized
- CD335 positive NK cells in CNS tumors [2]: significantly increased
- Ym1 expression (M2-polarized macrophages) in tumor [2]: significantly decreased
- iNOS activity (M1-polarized macrophages) in tumor [2]: increased
- CD335 positive NK cells in CNS tumors [2, 4]: significant increase
- Ym1 expression (M2-polarized macrophages) in tumor [2, 4]: significant decrease
- iNOS activity (M1-polarized macrophages) in tumor [2, 4]: significant increase
- brain macrophages (Iba-1 positive cells) ([2]; contralateral brain and tumor): significantly increased
- polarization status (FXIII A, pSTAT6 vs iNOS, pSTAT1 expression) [3]: from M2 to M1
